Laboratory results from patent US20110200656A1, “ANTIMICROBIAL CURRENCY, MATERIAL AND METHOD” (MICROBAN PRODUCTS COMPANY, priority 2007, published 2011).

Experiments:
[1] = tested on: Escherichia coli ATCC 8739; experiment: Quantitative evaluation of antibacterial activity of bank note samples, modified AATCC 100-1993; details: 625 ppm agent in acrylate coating
Method: (§1) For the testing, a protocol was selected which measured the percent kill in a bacterial population over a period of time when put in contact with banknote samples.
(§2) Tests were conducted against two common bacteria: the gram-positive Staphylococcus aureus, which is found almost everywhere in and on the body, and which can cause numerous infections; as well as the gram-negative Escherichia coli, which is a common “bathroom bacteria” that can cause severe food poisoning. With good results against these organisms, efficacy against a broad spectrum of other bacteria can be predicted.
(§3) Ten samples marked Secu-GB1-A-260503, Secu-GB2-A-260503, Secu-GB3-A-260503, Secu-GB4-A-260503, Secu-GB5-A-260503, Secu-C-A-260503, Secu-C-B-260503, Secu-C-C-260503, Secu-C-D-260503 and Secu-C-E-260503 were manufactured employing 2,4,4′-trichloro-2′-hydroxydiphenyl ether in the acrylate composition applied as a coating layer on the planar material.
(§4) Samples from the bank note prototypes were evaluated for their antibacterial activity in accordance with the modified method AATCC 100-1993. The tests were performed against the organisms Staphylococcus aureus ATCC 6538 and Escherichia coli ATCC 8739.

[2] = tested on: Staphylococcus aureus ATCC 6538; experiment: as above; details: 625 ppm agent in acrylate coating
Method: as §1, §2, §3, §4

Compound: Oc1cc(Cl)ccc1Oc1ccc(Cl)cc1Cl [2,4,4′-trichloro-2′-hydroxydiphenyl ether]
- log reductions (in words) [1]: strong log reductions
- log reductions (in words) [2]: strong log reductions
